Results on four molecules are retold here after patent US11439619B2, “Phosphaplatin compounds as immuno-modulatory agents and therapeutic uses thereof” (Phosplatin Therapeutics Inc., priority 2017, dated 2022).

Molecules are shown by their SMILES.

The subject of series [1] is nucleotide excision repair (NER)-deficient HCT116 cells and their isogenic NER-proficient counterparts. In words: potency in NER-deficient versus NER-proficient HCT116 cells. It counts as cell-based. The text has this: (§1) A high degree of correlation was observed between cis and carbo activity, but not between those agents and PT-112. A correlation between PT-112 and oxali was also observed, which led to investigation of cellular targets and mechanisms not shared by these two agents. […] These effects comprise the release of HMGB1 and ATP, the cell surface exposure of calreticulin (CRT), and the suppression of STATS.

Series [2] in a line: renal function and tolerability in rats. It counts as in vivo.
Another series concerns live tumor cells. The experiment in a line: vaccination experiment with live tumor cell challenge. It counts as in vivo, mice. Conditions: vaccine from agent-killed cells. How it is done:
FIG. 4 illustrates the survival advantage conferred when different vaccines are given to mice before being challenged with a live tumor cell injection. Vaccines are composed of dead and dying cancer cells of the same cell line exposed to different anti-cancer agents, killed by exposure to different agents.
The “gold standard” for ICD validation is a vaccine experiment, where mice are injected with dead cell material generated by exposing cells to an anticancer agent. Importantly, the anti-cancer agent is removed, and the mice are only injected with the dead and dying cells. Subsequently, after 1-2 weeks, mice are then challenged with an injection of live tumor cells of the same type used to create the vaccine.
This vaccination experiment was conducted using four different treatment groups, one unvaccinated negative control, and three receiving vaccines from the use of different agents: cisplatin (a negative control, non-ICD inducer), mitoxantrone (a positive control ICD inducer), and PT-112 (the experimental arm) (FIG. 4). The vast majority of mice (80-90%) in both negative control groups developed tumors rapidly (within one week).

Series [3] relates to broadly platinum-resistant cell panel. In words: IC50 values in a broadly platinum-resistant cell panel. It counts as cell-based.
Source text: as §1

The subject of series [4] is HCT116 colon cancer model. In words: phosphorylation of H2AX and induction of Ku70 in HCT116 colon cancer model. Conditions: versus oxali at equipotent concentrations. The class given is cell-based.
Source text: as §1

In the next series the test system is p53 and MDM2. In words: impact on p53 and MDM2 levels. It counts as cell-based.
Source text: as §1

The subject of series [5] is immunogenic cell death (ICD). The experiment in a line: effects indicative of ICD induction versus oxali. Conditions: compared with oxali. It counts as cell-based.
Source text: as §1

The subject of the next series is cancer cell models. In words: Pt accumulation in DNA and whole cell extracts of cancer cell models. It counts as cell-based. To be noted: previous work; compared with cisplatin or oxaliplatin exposure. The text has this:
PT-112 is a new chemical entity under clinical development in the US and the People's Republic of China, designed to minimize particular toxicities associated with traditional platinum agents and drug resistance stemming from DNA damage and repair. As a pyrophosphate-conjugated Pt-containing anti-neoplastic therapeutic, PT-112 differs from platinum therapies in both mechanism and toxicity. […] Nonetheless, PT-112 has potent cytotoxic activity in in vitro systems, implying a different spectrum of targets for PT-112 in comparison to traditional platinum compounds. We explored the activity and mechanism of action of PT-112 by investigating impacts on cancer related proteins and pathways, including those connected to immunogenic cell death (ICD), as well as how PT-112 potency is affected by DNA repair pathways. In addition, PT-112 anticancer activity, pharmacokinetics (PK), and toxicity were measured in multiple in vivo systems.

For series [6], the system named is GXF97 gastric patient-derived xenograft. In words: GXF97 gastric patient-derived xenograft (PDX) model. It counts as in vivo. To be noted: higher doses not tolerated by all mice, data not shown.
A further series concerns CXF280 colon PDX. In words: CXF280 colon PDX model. The class given is in vivo.
Series [7] relates to PANC1 pancreatic cancer model. In words: PANC1 pancreatic cancer model. The class given is in vivo.
Details of series [8]: species or system rats. Conditions: rat, in vivo. The source says:
Importantly, Pt in plasma, but not present in the PUF, is believed to be protein-bound and not bioavailable for therapeutic benefit.

Series [9] is described as follows: mouse model of acute neurotoxicity (cold hypersensitivity). It counts as in vivo. To be noted: single dose, PT-112 at twice the molar concentration of oxali.
Series [10] is described as follows: chronic neuropathy indicators after repeat doses over 4 weeks (DRG Pt, NCV). The class given is in vivo.
Series [11] relates to HCT116 colorectal cancer cell line. The experiment in a line: HMGB1 release from HCT116 cells, ELISA. The class given is cell-based. To be noted: HCT116, IC50 concentrations, 48 hours. How it is done: FIG. 1 illustrates the release of high mobility group box 1 (HMGB1) from cells treated with PT-112. HMGB1 in the media of cells after 48 hours of drug treatment was measured via ELISA. HMGB1 release is involved in ICD and antigen presentation to dendritic cells. Error bars indicate 1 SEM, and p values were generated using two-tailed t-tests.
(§2) Two such DAMPs are high mobility group box 1 (HMGB1) and calreticulin (CRT). HMGB1 is released from dying cells during ICD, whereas CRT migrates from the endoplasmic reticulum to the cell surface during ICD. To test if PT-112 exposure results in these events that are considered hallmarks of ICD, in vitro experiments using the HCT116 colorectal cancer cell line were conducted.
Subsequently, HMGB1 in the media of the cells was measured via ELISA.
In general terms: In an ELISA, binding on a coated surface is turned into a signal by an enzyme label.

Series [12] shares this test system. The experiment in a line: calreticulin (CRT) cell surface exposure in HCT116 cells, flow cytometry. It counts as cell-based. To be noted: HCT116, IC50 concentrations, 48 hours. As for the experimental part: FIG. 2 illustrates the cell surface exposure of calreticulin (CRT) from cells treated with PT-112. CRT cell surface expression was measured via flow cytometry after 48 hours of drug treatment. A peak present to the right of the main peak indicates cells staining positive for CRT, a hallmark of ICD and an indicator of phagocyte targeting.
as §2
Cells were then stained with an anti-CRT antibody, and positive staining was detected via flow cytometry.

The test system of another series is murine TSA cells. The experiment in a line: ATP release from TSA cells, luminometric assay. It counts as cell-based. To be noted: 48 hours, two concentrations. As for the experimental part:
FIG. 3 illustrates the release of adenosine triphosphate (ATP) from cells treated with PT-112. ATP in the media of cells after 48 hours of drug treatment was measured via a luminometric assay. PT-112 was tested in two concentrations, as was cisplatin (a negative control for ICD), in addition to a single concentration of mitoxantrone (a positive ICD control) and an untreated negative control sample. ATP release is indicative of ICD and involved in recruitment and activation of antigen-presenting cells.
PT-112 was also tested for its ability to release the DAMP ATP (FIG. 3), which is involved in the recruitment and activation of antigen-presenting cells. Here, murine TSA cells were exposed to either PT-112 at two different concentrations, cisplatin (a negative control for ICD, also at two concentrations), mitoxantrone (a positive ICD control), or no drug control for 48 hours. Subsequently, ATP in the media was measured via a luminometric assay. […] This is again indicative of PT-112 robustly causing ICD.

For the next series, the system named is CT26 cells. The experiment in a line: FACS analysis of tumor tissue, CT26 allograft. The class given is in vivo, mice. The text has this:
FIG. 6 illustrates fluorescence-activated cell sorting (FACS) analysis of tumor biopsies from a mouse allograft experiment, whereby immune-competent mice were implanted with CT26 cells and were subsequently randomized into control, PT-112, anti-PD-L antibody, or combination treatment. Bars are normalized to the control group.
FIG. 7 illustrates the effect of various treatments on the ratios of different cell populations from tumor biopsies in a mouse allograft experiment using the CT26 cell line, where mice were randomized into vehicle control, PT-112, anti-PD-L antibody, and combination treatment groups. PT-112 treatment groups had large increases in the ratio of immunogenic to immunosuppressive cell types, indicating PT-112 induces a more immunogenic tumor microenvironment.
Additionally, tumor tissue was removed from additional treated mice and analyzed via FACS for differences in white blood cell populations.
(In general: A flow cytometer gives signals particle by particle.)

The next series has as its system MC38 cells. In words: FACS analysis of tumor tissue, MC38 allograft. The class given is in vivo, mice. The text has this:
FIG. 8 illustrates fluorescence-activated cell sorting (FACS) analysis of tumor biopsies from a mouse allograft experiment, whereby immune-competent mice were implanted with MC38 cells and were subsequently randomized into control, PT-112, anti-PD-L1 antibody, or combination treatment. Bars are normalized to the control group.
FIG. 9 illustrates the effect of various treatments on the ratios of different cell populations from tumor biopsies in a mouse allograft experiment using the MC38 cell line, where mice were randomized into vehicle control, PT-112, anti-PD-L1 antibody, and combination treatment groups. […]
To better understand the effects of the different treatments on T cell populations, additional immuno-competent mice were implanted with MC38 cells and were subsequently randomized into control, PT-112, anti-PD-L1 antibody, or combination treatment arms (n=5). After 2 weeks of treatment (PT-112 @ 90 mg/kg QW and PD-L1 @ 10 mg/kg BIW), tumor tissue was removed and analyzed via FACS for differences in white blood cell populations. […]
Not all white blood cell populations are immunogenic. […] To better understand if the changes observed would have a net immunogenic or immunosuppressive effect, ratios of different cell populations were calculated (FIG. 9).

The conditions of series [13]: data from the literature; cited from earlier work.

With `N.N.[Cl][Pt][Cl]` [cisplatin, reference compound], the “potency difference between NER-deficient and NER-proficient HCT116 cells” value in series [1] was “NER-competent cells were less sensitive”. Moreover, the “effects on renal function (creatinine, BUN and GFR)” value in series [2] (rat, in vivo) is on record as “caused morbidity”. Further, the “mice that developed tumors” value with live tumor cells (within one week) is given as 80-90%.
For `O=P1(O)OP(=O)(O)[O][Pt]2([NH][C@@H]3CCCC[C@H]3[NH]2)[O]1` (stereo partly drawn) [PT-112, trans-(R,R)-1,2-cyclohexanediamine(pyrophosphato) platinum(II)], in series [3], the “IC50 values compared with cis, carbo and oxali” value is “superior to cis, carboplatin (carbo), and oxali in a majority of cell lines”. In series [4], the “effect on induction of Ku70” value is listed as “minimal effect” and the “effect on the phosphorylation of H2AX” value is given as “minimal effect”. Moreover, the “potency difference between NER-deficient and NER-proficient HCT116 cells” value in series [1] was “did not differ significantly”. For the same molecule, in the series with p53 and MDM2, the “impact on p53 and MDM2 levels” value was “noteworthy impact”. Besides, the “effects indicative of ICD induction (release of HMGB1 and ATP, cell surface exposure of CRT, suppression of STATS)” value in series [5] is “significantly greater extent than oxali”. In the series with cancer cell models, the “Pt accumulation in DNA and whole cell extracts” value is “significantly less Pt accumulation”. For the same molecule, the “response at higher doses” value in series [6] is on record as “Cases of complete response were observed”. Besides, the tumor growth entry in the series on CXF280 colon PDX is given as “Sustained tumor growth delay”. Besides, in series [7], the tumor growth entry is “Sustained tumor growth delay”. In [8], the “fraction of Pt in the plasma ultrafiltrate (PUF) relative to total plasma Pt” value was 72.8% and the “stability in plasma (parent by LC-MS/MS)” value was “stability of PT-112 in plasma”. The “tolerated concentration relative to cis” value in series [2] (rats) is reported as 7 fold. Besides, the “effects on renal function (creatinine, BUN and GFR)” value in series [2] (rats, PT-112 at 7-fold higher concentrations than cis) is reported as “minimal effects”. Also, the cold hypersensitivity entry in series [9] is “indistinguishable from untreated controls”. Also, in series [10], the “accumulation of Pt in dorsal root ganglia (DRG) nerve tissue” value is “minimal accumulation” and the “nerve conduction velocity (NCV)” value is reported as “no significant loss”. The “HMGB1 release into the media” value in [11] is recorded as “significantly higher”. Moreover, the “anti-CRT antibody staining (cell surface CRT)” value in [12] is recorded as “greater effect”. Further, in the series on murine TSA cells, the “release of ATP into the media” value is “robust release of ATP”. Also, in the series with CT26 cells, the “changes in cytotoxic T cell (CD8+) and helper T cell (CD4+) populations in tumor” value is recorded as “large changes”; the “ratio of immunogenic to immunosuppressive T cell populations” value is listed as “favorable changes”. Also, the “changes in white blood cell populations incl. cytotoxic T cells (CD8+) and helper T cells (CD4+) in tumor” value in the series with MC38 cells (MC38, 2 weeks, PT-112 90 mg/kg QW, PD-L1 10 mg/kg BIW, FACS) is recorded as “large changes”. Besides, in the series on MC38 cells (MC38, FACS), the “ratios of helper T cells and cytotoxic T cells to regulatory T cells” value was “positive effects”.
For the molecule `O=C1c2c(O)ccc(O)c2C(=O)c2c(NCCNCCO)ccc(NCCNCCO)c21` [mitoxantrone], the “mice remaining tumor free” value in the series with live tumor cells (PT-112 group for over one month) is 40%.
Consider `O=C1[O][Pt]2([NH][C@@H]3CCCC[C@H]3[NH]2)[O]C1=O` [oxaliplatin, reference compound], for which the “nerve conduction velocity (NCV)” value in series [10] was “dose-dependent declines”. Further, the “HMGB1 release into the media” value in series [11] is reported as “elevated levels of HMGB1 in the media versus untreated control cells”. Also, in series [12], the “anti-CRT antibody staining (cell surface CRT)” value is “enhanced staining relative to control”. Moreover, the “fraction of Pt in the plasma ultrafiltrate (PUF)” value in series [13] is given as 28.2%.
